Values of other authors, collected in US11975000B1, “Tadalafil oral transmucosal film” (Xiamen LP Pharmaceutical Co., Ltd., priority 2023, dated 2024).

What was measured:
[1] = in vivo

- Solubility (in words): practically insoluble in water
- Water solubility (in water at 25° C., U.S. Pat. No. 6,841,167): about 2 μg/mL
SMILES: CN1CC(=O)N2[C@H](c3ccc4c(c3)OCO4)c3[nH]c4ccccc4c3C[C@@H]2C1=O [Tadalafil, (6R-trans)-6-(1,3-benzodioxol-5-yl) 2,3,6,7,12,12a-hexahydro-2-methyl-pyrazino[1′,2′:1,6]pyrido[3,4-b]indole-1,4-dione]
- Duration of action [1]: 24 to 36 h
- Reported maximum duration [1]: 72 h
